{
  "source": "the supplement of paper PMC10307832",
  "assay_in_all_cases": "relative viability (nuclei count vs DMSO), 5 days (fraction); higher = more cells survive",
  "key": {"[1]": {"system": "NCI-H441", "in_short": "(§1)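 Nuclei were stained with Hoechst during a one-step fixation (final 0.05% Triton X-100, 1% formaldehyde, 1 ug/ml Hoechst) carried out 5 days after dosing, then counted on 4× images. The cells, lung cancer lines in 1536-well plates, had been dosed by pin tool the day after seeding with one drug alone or a fixed anchor-drug dose plus five library-drug doses (not always all listed) in √10 steps. Relative viability is the nuclei count in treated wells divided by that in vehicle wells, and each value is the median of duplicate plates.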"}, "[2]": {"system": "NCI-H2170", "in_short": "as §1"}, "[3]": {"system": "NCI-H2347", "in_short": "as §1"}, "[4]": {"system": "EPLC-272H", "in_short": "as §1"}, "[5]": {"system": "NCI-H3122", "in_short": "as §1"}, "[6]": {"system": "SW 900", "in_short": "as §1"}, "[7]": {"system": "H3255", "in_short": "as §1"}, "[8]": {"system": "HCC-15", "in_short": "as §1"}, "[9]": {"system": "PC-14", "in_short": "as §1"}, "[10]": {"system": "NCI-H322M", "in_short": "as §1"}, "[11]": {"system": "NCI-H2405", "in_short": "as §1"}, "[12]": {"system": "NCI-H1734", "in_short": "as §1"}, "[13]": {"system": "LOU-NH91", "in_short": "as §1"}, "[14]": {"system": "201T", "in_short": "as §1"}, "[15]": {"system": "NCI-H647", "in_short": "as §1"}, "[16]": {"system": "NCI-H1793", "in_short": "as §1"}},
  "data": [
    {"molecule": "CC(=O)O[C@@]12CO[C@@H]1C[C@H](O)[C@@]1(C)C(=O)[C@H](O)C3=C(C)[C@@H](OC(=O)[C@H](O)[C@@H](NC(=O)OC(C)(C)C)c4ccccc4)C[C@@](O)([C@@H](OC(=O)c4ccccc4)[C@H]21)C3(C)C", "note": "[Docetaxel] + NC(=O)Nc1cc(-c2cccc(F)c2)sc1C(=O)N[C@H]1CCCNC1 [AZD7762] (partner 0.2 µM)", "values": [
      {"measurement": "relative viability", "setting": "[1]; first compound 0.0002 µM", "value": 1.06},
      {"measurement": "relative viability", "setting": "[1]; first compound 0.000632 µM", "value": 1.15},
      {"measurement": "relative viability", "setting": "[1]; first compound 0.002 µM", "value": 0.263},
      {"measurement": "relative viability", "setting": "[1]; first compound 0.006325 µM", "value": 0.221},
      {"measurement": "relative viability", "setting": "[1]; first compound 0.02 µM", "value": 0.167},
      {"measurement": "relative viability", "setting": "[2]; first compound 0.0002 µM", "value": 0.895},
      {"measurement": "relative viability", "setting": "[2]; first compound 0.000632 µM", "value": 0.722},
      {"measurement": "relative viability", "setting": "[2]; first compound 0.002 µM", "value": 0.581},
      {"measurement": "relative viability", "setting": "[2]; first compound 0.02 µM", "value": 0.131},
      {"measurement": "relative viability", "setting": "[3]; first compound 0.0002 µM", "value": 0.697},
      {"measurement": "relative viability", "setting": "[3]; first compound 0.000632 µM", "value": 0.583},
      {"measurement": "relative viability", "setting": "[3]; first compound 0.002 µM", "value": 0.434},
      {"measurement": "relative viability", "setting": "[3]; first compound 0.006325 µM", "value": 0.395},
      {"measurement": "relative viability", "setting": "[3]; first compound 0.02 µM", "value": 0.268},
      {"measurement": "relative viability", "setting": "[4]; first compound 0.000632 µM", "value": 0.191},
      {"measurement": "relative viability", "setting": "[4]; first compound 0.002 µM", "value": 0.0912},
      {"measurement": "relative viability", "setting": "[4]; first compound 0.006325 µM", "value": 0.149},
      {"measurement": "relative viability", "setting": "[4]; first compound 0.02 µM", "value": 0.0556},
      {"measurement": "relative viability", "setting": "[5]; first compound 0.0002 µM", "value": 0.939},
      {"measurement": "relative viability", "setting": "[5]; first compound 0.000632 µM", "value": 0.818},
      {"measurement": "relative viability", "setting": "[5]; first compound 0.002 µM", "value": 0.843},
      {"measurement": "relative viability", "setting": "[5]; first compound 0.006325 µM", "value": 0.171},
      {"measurement": "relative viability", "setting": "[5]; first compound 0.02 µM", "value": 0.121},
      {"measurement": "relative viability", "setting": "[6]; first compound 0.0002 µM", "value": 0.452},
      {"measurement": "relative viability", "setting": "[6]; first compound 0.000632 µM", "value": 0.234},
      {"measurement": "relative viability", "setting": "[6]; first compound 0.002 µM", "value": 0.287},
      {"measurement": "relative viability", "setting": "[6]; first compound 0.006325 µM", "value": 0.235},
      {"measurement": "relative viability", "setting": "[6]; first compound 0.02 µM", "value": 0.161},
      {"measurement": "relative viability", "setting": "[7]; first compound 0.0002 µM", "value": 0.749},
      {"measurement": "relative viability", "setting": "[7]; first compound 0.000632 µM", "value": 0.859},
      {"measurement": "relative viability", "setting": "[7]; first compound 0.002 µM", "value": 0.446},
      {"measurement": "relative viability", "setting": "[7]; first compound 0.006325 µM", "value": 0.288},
      {"measurement": "relative viability", "setting": "[7]; first compound 0.02 µM", "value": 0.288},
      {"measurement": "relative viability", "setting": "[8]; first compound 0.0002 µM", "value": 1.18},
      {"measurement": "relative viability", "setting": "[8]; first compound 0.000632 µM", "value": 1.02},
      {"measurement": "relative viability", "setting": "[8]; first compound 0.002 µM", "value": 0.433},
      {"measurement": "relative viability", "setting": "[8]; first compound 0.006325 µM", "value": 0.289},
      {"measurement": "relative viability", "setting": "[8]; first compound 0.02 µM", "value": 0.256},
      {"measurement": "relative viability", "setting": "[9]; first compound 0.0002 µM", "value": 0.322},
      {"measurement": "relative viability", "setting": "[9]; first compound 0.000632 µM", "value": 0.337},
      {"measurement": "relative viability", "setting": "[9]; first compound 0.002 µM", "value": 0.132},
      {"measurement": "relative viability", "setting": "[9]; first compound 0.006325 µM", "value": 0.0705},
      {"measurement": "relative viability", "setting": "[9]; first compound 0.02 µM", "value": 0.0363},
      {"measurement": "relative viability", "setting": "[10]; first compound 0.0002 µM", "value": 0.611},
      {"measurement": "relative viability", "setting": "[10]; first compound 0.000632 µM", "value": 0.459},
      {"measurement": "relative viability", "setting": "[10]; first compound 0.002 µM", "value": 0.451},
      {"measurement": "relative viability", "setting": "[10]; first compound 0.006325 µM", "value": 0.509},
      {"measurement": "relative viability", "setting": "[10]; first compound 0.02 µM", "value": 0.39},
      {"measurement": "relative viability", "setting": "[11]; first compound 0.0002 µM", "value": 0.742},
      {"measurement": "relative viability", "setting": "[11]; first compound 0.000632 µM", "value": 0.582},
      {"measurement": "relative viability", "setting": "[11]; first compound 0.002 µM", "value": 0.46},
      {"measurement": "relative viability", "setting": "[11]; first compound 0.006325 µM", "value": 0.349},
      {"measurement": "relative viability", "setting": "[11]; first compound 0.02 µM", "value": 0.248},
      {"measurement": "relative viability", "setting": "[12]; first compound 0.0002 µM", "value": 0.449},
      {"measurement": "relative viability", "setting": "[12]; first compound 0.000632 µM", "value": 0.384},
      {"measurement": "relative viability", "setting": "[12]; first compound 0.002 µM", "value": 0.199},
      {"measurement": "relative viability", "setting": "[12]; first compound 0.006325 µM", "value": 0.222},
      {"measurement": "relative viability", "setting": "[12]; first compound 0.02 µM", "value": 0.164},
      {"measurement": "relative viability", "setting": "[13]; first compound 0.0002 µM", "value": 0.748},
      {"measurement": "relative viability", "setting": "[13]; first compound 0.000632 µM", "value": 0.662},
      {"measurement": "relative viability", "setting": "[13]; first compound 0.002 µM", "value": 0.509},
      {"measurement": "relative viability", "setting": "[13]; first compound 0.006325 µM", "value": 0.385},
      {"measurement": "relative viability", "setting": "[13]; first compound 0.02 µM", "value": 0.342},
      {"measurement": "relative viability", "setting": "[14]; first compound 0.0002 µM", "value": 0.528},
      {"measurement": "relative viability", "setting": "[14]; first compound 0.000632 µM", "value": 0.623},
      {"measurement": "relative viability", "setting": "[14]; first compound 0.002 µM", "value": 0.481},
      {"measurement": "relative viability", "setting": "[14]; first compound 0.006325 µM", "value": 0.388},
      {"measurement": "relative viability", "setting": "[14]; first compound 0.02 µM", "value": 0.246},
      {"measurement": "relative viability", "setting": "[15]; first compound 0.0002 µM", "value": 0.297},
      {"measurement": "relative viability", "setting": "[15]; first compound 0.000632 µM", "value": 0.217},
      {"measurement": "relative viability", "setting": "[15]; first compound 0.002 µM", "value": 0.0746},
      {"measurement": "relative viability", "setting": "[15]; first compound 0.006325 µM", "value": 0.0816},
      {"measurement": "relative viability", "setting": "[15]; first compound 0.02 µM", "value": 0.0266},
      {"measurement": "relative viability", "setting": "[16]; first compound 0.0002 µM", "value": 0.369},
      {"measurement": "relative viability", "setting": "[16]; first compound 0.000632 µM", "value": 0.381},
      {"measurement": "relative viability", "setting": "[16]; first compound 0.002 µM", "value": 0.299},
      {"measurement": "relative viability", "setting": "[16]; first compound 0.006325 µM", "value": 0.204},
      {"measurement": "relative viability", "setting": "[16]; first compound 0.02 µM", "value": 0.144}
    ]}
  ]
}
